Laboratory results from PubChem BioAssay AID2060600 (Molecular Pharmacology Branch, DTP, NCI, 2025).
pIC50: −log10 of the molar value.

System: 996289-038-R-J1-PDC complex spheroid viability
Experiment: Anticancer human tumor 996289-038-R-J1-PDC patient-derived colon adenocarcinoma cell line growth inhibition [CLK]
Settings: for pIC50: curve of first compound; for viability, T/C: stronger effect = lower value
Text: A high-throughput screen of multi-cell type tumor spheroids was designed to identify active combinations of […] and targeted small molecules. Complex spheroids include a stromal component modeled by human endothelial cells (HUVEC) and fibroblasts modeled by human mesenchymal stem cells (MSCs). The concentration ranges selected for each drug and investigational agent were based upon clinically achievable concentrations if the clinical Cmax of the agent was known.
Compounds. The drugs and investigational agents: cirtuvivint (SM08502; NSC835563), CC-671 (NSC850746), vemurafenib (NSC761431), tapotoclax (NSC804041), sotorasib (NSC818433), adagrasib (NSC831453), MRTX-1133 (NSC836407), BAY2416964 (NSC825713), copanlisib (NSC816437), inavolisib (NSC800729), abemaciclib (NSC768073), osimertinib (NSC779217), entinostat (NSC756642), eltanexor (KPT-8602, NSC794443), venetoclax (NSC766270), ceralasertib (NSC777638), bortezomib (NSC756655), olaparib (NSC753686), talazoparib (NSC767125), alisertib (NSC759677), peposertib (NSC802822), gemcitabine (NSC613327), 5-fluorouracil (NSC19893), SN-38 (NSC673596), oxaliplatin (NSC266046), paclitaxel (NSC125973), and doxorubicin (NSC123127), were obtained from the National Cancer Institute (NCI) Developmental Therapeutics Program Chemical Repository. The FDA-approved anticancer drug set is available from the Developmental Therapeutics Program at https://dtp.cancer.gov/organization/dscb/obtaining/available plates.htm. […] The stock solutions were prepared in dimethyl sulfoxide (DMSO, Sigma-Aldrich, St. Louis, MO, cat. D2650), except for the platinum complexes which were prepared in saline (Quality Biological, Gaithersburg, MD, cat. 114-055-101), at 800-fold the tested concentration and stored at -70 degrees C prior to their use. All drugs and investigational agents were tested over a range starting from a high concentration at or near the clinical Cmax and decreasing in half-log increments. If the clinical Cmax for an agent had not been determined, the highest concentration tested was 10 microM.
Cell Culture. All cells were maintained in an incubator at 37 degrees C and 5% CO2 with 95% humidity. The PDC lines were cultured according to standard operating procedures established by the NCI PDMR. Briefly, all PDCs were thawed and cultured in Matrigel-coated flasks prepared with a working solution of 1X Ham's F-12 nutrient mix, without supplementation (Invitrogen, Waltham, MA, cat. 11765054), 100 U/mL penicillin-streptomycin (Invitrogen, cat. 15140122), and 2.5% Matrigel (Corning Inc., Corning, NY, cat. 354248) for the first three passages. The 947758-054-R-J2-PDC line was cultured in 6B/Colon 1A media, which includes advanced DMEM/F-12 (Thermo Fisher Scientific, cat. 12634028), 10 mM HEPES (Thermo Fisher Scientific, cat. 15630080), 1X GlutaMAX supplement (Thermo Fisher Scientific, cat. 35050061), 0.1 mg/mL primocin (InvivoGen, cat. ant-pm-2), 10% defined fetal bovine serum, heat inactivated (HyClone Laboratories Inc., cat. SH30070.03HI), 1.25 mM N-Acetyl-L-cysteine (Sigma-Aldrich, cat. A9165), 10 mM nicotinamide (Sigma-Aldrich, cat. N0636), 1X B-27 supplement (Thermo Fisher Scientific, cat. 17504044), 1X N-2 supplement (Thermo Fisher Scientific, cat. 17502048), and 10 microM Y-27632 dihydrochloride (Tocris Bioscience, cat. 1254). The 876862-298-R-J1-PDC was cultured in 6E media, which includes all 6B/Colon 1A media components plus 50% L-WRN conditioned media (ATCC, cat. CRL-3276), 50 ng/mL recombinant human EGF recombinant protein (hEGF; Thermo Fisher Scientific, cat. PHG0311), 10 ng/mL recombinant human fibroblast growth factor 10 (hGFG-10; PeproTech, cat. 100-26), 1 ng/mL recombinant human fibroblast growth factor 2 (hFGF-2; PeproTech, cat. 100-18B), and 1 µM prostaglandin E2 (PGE2; Tocris, cat. 2296). The 227483-062-R1-J1-PDC line was cultured in Panc media, containing all 6E components except hFGF-2, with the addition of 500 nM SB-431542 (Selleckchem, cat. S1067) and 10 nM gastrin (Tocris, cat. 3006). […]

[1] = second compound 0.0316 µM, first compound 0.0316 µM
[2] = second compound 0.0316 µM, first compound 0.1 µM
[3] = second compound 0.0316 µM, first compound 0.316 µM
[4] = second compound 0.0316 µM, first compound 1 µM
[5] = second compound 0.1 µM, first compound 0.0316 µM
[6] = second compound 0.1 µM, first compound 0.1 µM
[7] = second compound 0.1 µM, first compound 0.316 µM
[8] = second compound 0.1 µM, first compound 1 µM
[9] = second compound 0.316 µM, first compound 0.0316 µM
[10] = second compound 0.316 µM, first compound 0.1 µM
[11] = second compound 0.316 µM, first compound 0.316 µM
[12] = second compound 0.316 µM, first compound 1 µM
[13] = second compound 1 µM, first compound 0.0316 µM
[14] = second compound 1 µM, first compound 0.1 µM
[15] = second compound 1 µM, first compound 0.316 µM
[16] = second compound 1 µM, first compound 1 µM
[17] = second compound 3.16 µM, first compound 0.0316 µM
[18] = second compound 3.16 µM, first compound 0.1 µM
[19] = second compound 3.16 µM, first compound 0.316 µM
[20] = second compound 3.16 µM, first compound 1 µM
[21] = second compound 10 µM, first compound 0.0316 µM
[22] = second compound 10 µM, first compound 0.1 µM
[23] = second compound 10 µM, first compound 0.316 µM
[24] = second compound 10 µM, first compound 1 µM
[25] = second compound 0.0316 µM, first compound 0.00316 µM
[26] = second compound 0.0316 µM, first compound 0.01 µM
[27] = second compound 0.1 µM, first compound 0.00316 µM
[28] = second compound 0.1 µM, first compound 0.01 µM
[29] = second compound 0.316 µM, first compound 0.00316 µM
[30] = second compound 0.316 µM, first compound 0.01 µM
[31] = second compound 1 µM, first compound 0.00316 µM
[32] = second compound 1 µM, first compound 0.01 µM
[33] = second compound 3.16 µM, first compound 0.00316 µM
[34] = second compound 3.16 µM, first compound 0.01 µM
[35] = second compound 10 µM, first compound 0.00316 µM
[36] = second compound 10 µM, first compound 0.01 µM
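Also: spheroids exposed to the agents for 7 days before readout.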

`CC(Nc1ccc2c(c1)OCCn1cc(N3C(=O)OCC3C(F)F)nc1-2)C(N)=O` (stereo unspecified) + CN1CCN(c2cc(C(=O)Nc3cc4cc(-c5cnn(C)c5)ccc4cn3)ccn2)CC1 showed a pIC50 (second compound 0.0316 µM) of 5.50, a pIC50 (second compound 0.1 µM) of 5.96 and a pIC50 (second compound 0.316 µM) of 6.80. For the same molecule, the pIC50 (second compound 1 µM) was > 7.50, the pIC50 (second compound 3.16 µM) was > 7.50 and the pIC50 (second compound 10 µM) was > 7.50. It also gave a viability, T/C [1] of 88.1%, a viability, T/C [2] of 84.9% and a viability, T/C [3] of 71.8%. The viability, T/C [4] was 60.5%, the viability, T/C (second compound 0.0316 µM, first compound 3.16 µM) was 52.2% and the viability, T/C (second compound 0.0316 µM, first compound 10 µM) was 37.2%. The viability, T/C [5] was 91.5%, the viability, T/C [6] was 77.3% and the viability, T/C [7] was 62.1%. The viability, T/C [8] was 50.6%, the viability, T/C (second compound 0.1 µM, first compound 3.16 µM) was 41.6% and the viability, T/C (second compound 0.1 µM, first compound 10 µM) was 31.2%. For the same molecule, the viability, T/C [9] was 62%, the viability, T/C [10] was 50.9% and the viability, T/C [11] was 46%. For the same molecule, the viability, T/C [12] was 35.6%, the viability, T/C (second compound 0.316 µM, first compound 3.16 µM) was 35.9% and the viability, T/C (second compound 0.316 µM, first compound 10 µM) was 21.9%. For the same molecule, the viability, T/C [13] was 2.6%, the viability, T/C [14] was 2.53% and the viability, T/C [15] was 2.23%. The viability, T/C [16] was 1.58%, the viability, T/C (second compound 1 µM, first compound 3.16 µM) was 1.47% and the viability, T/C (second compound 1 µM, first compound 10 µM) was 1.4%. For the same molecule, the viability, T/C [17] was 3.59%, the viability, T/C [18] was 0.97% and the viability, T/C [19] was 1.63%. The viability, T/C [20] was 1.51%, the viability, T/C (second compound 3.16 µM, first compound 3.16 µM) was 1.33% and the viability, T/C (second compound 3.16 µM, first compound 10 µM) was 1.96%. The viability, T/C [21] was 1.51%, the viability, T/C [22] was 0.78% and the viability, T/C [23] was 1.23%. The viability, T/C [24] was 0.65%, the viability, T/C (second compound 10 µM, first compound 3.16 µM) was 0.6% and the viability, T/C (second compound 10 µM, first compound 10 µM) was 0.47%.

With `CCN1CCN(Cc2ccc(Nc3ncc(F)c(-c4cc(F)c5nc(C)n(C(C)C)c5c4)n3)nc2)CC1` + CN1CCN(c2cc(C(=O)Nc3cc4cc(-c5cnn(C)c5)ccc4cn3)ccn2)CC1 the pIC50 (second compound 0.0316 µM) was < 6.00, the pIC50 (second compound 0.1 µM) was < 6.00 and the pIC50 (second compound 0.316 µM) was 6.12. The pIC50 (second compound 1 µM) was > 8.50, the pIC50 (second compound 3.16 µM) was > 8.50 and the pIC50 (second compound 10 µM) was > 8.50. The viability, T/C [25] was 95.8%, the viability, T/C [26] was 97.3% and the viability, T/C [1] was 82.6%. The viability, T/C [2] was 82.5%, the viability, T/C [3] was 79.7% and the viability, T/C [4] was 76.8%. The viability, T/C [27] was 101%, the viability, T/C [28] was 85.7% and the viability, T/C [5] was 86.4%. The viability, T/C [6] was 81.4%, the viability, T/C [7] was 68.8% and the viability, T/C [8] was 71%. The viability, T/C [29] was 64.8%, the viability, T/C [30] was 62.5% and the viability, T/C [9] was 58.7%. For the same molecule, the viability, T/C [10] was 53.4%, the viability, T/C [11] was 51.3% and the viability, T/C [12] was 50.8%. It also gave a viability, T/C [31] of 6.12%, a viability, T/C [32] of 6.14% and a viability, T/C [13] of 7.95%. It also gave a viability, T/C [14] of 8.35%, a viability, T/C [15] of 10.1% and a viability, T/C [16] of 2.91%. For the same molecule, the viability, T/C [33] was 1.14%, the viability, T/C [34] was 1.05% and the viability, T/C [17] was 0.74%. For the same molecule, the viability, T/C [18] was 1.08%, the viability, T/C [19] was 1.2% and the viability, T/C [20] was 2.28%. It also gave a viability, T/C [35] of 0.58%, a viability, T/C [36] of 0.55% and a viability, T/C [21] of 0.57%. For the same molecule, the viability, T/C [22] was 0.88%, the viability, T/C [23] was 0.37% and the viability, T/C [24] was 0.53%.

`COc1c(OCCCN2CCOCC2)ccc2c3n(c(=NC(=O)c4cnc(N)nc4)nc12)CCN3` + CN1CCN(c2cc(C(=O)Nc3cc4cc(-c5cnn(C)c5)ccc4cn3)ccn2)CC1 was tested, and the pIC50 (second compound 0.0316 µM) was 7.13, the pIC50 (second compound 0.1 µM) was 7.42 and the pIC50 (second compound 0.316 µM) was 8.01. The pIC50 (second compound 1 µM) was > 8.50, the pIC50 (second compound 3.16 µM) was > 8.50 and the pIC50 (second compound 10 µM) was > 8.50. The viability, T/C [25] was 87.7%, the viability, T/C [26] was 88.8% and the viability, T/C [1] was 64.5%. For the same molecule, the viability, T/C [2] was 43.9%, the viability, T/C [3] was 30.1% and the viability, T/C [4] was 18.7%. The viability, T/C [27] was 86%, the viability, T/C [28] was 66.7% and the viability, T/C [5] was 56.4%. It also gave a viability, T/C [6] of 33.5%, a viability, T/C [7] of 24.8% and a viability, T/C [8] of 13.5%. It also gave a viability, T/C [29] of 56.9%, a viability, T/C [30] of 50% and a viability, T/C [9] of 36.3%. The viability, T/C [10] was 21%, the viability, T/C [11] was 12.7% and the viability, T/C [12] was 8.17%. It also gave a viability, T/C [31] of 2.97%, a viability, T/C [32] of 3.06% and a viability, T/C [13] of 3.03%. The viability, T/C [14] was 1.3%, the viability, T/C [15] was 1.59% and the viability, T/C [16] was 3.21%. For the same molecule, the viability, T/C [33] was 0.97%, the viability, T/C [34] was 0.95% and the viability, T/C [17] was 2.68%. The viability, T/C [18] was 0.71%, the viability, T/C [19] was 2.1% and the viability, T/C [20] was 1.27%. It also gave a viability, T/C [35] of 1.28%, a viability, T/C [36] of 0.97% and a viability, T/C [21] of 0.74%. The viability, T/C [22] was 0.86%, the viability, T/C [23] was 0.56% and the viability, T/C [24] was 0.61%.
